# Where two headings read alike, the source gives them in different places.
# Key:
# obese female Zucker rats = assay: Oral daily treatment of obese female Zucker rats for 14 days (body weight, serum lipids, glucose, insulin); type: in vivo, rat; parameters: HDL-C / Glucose / Insulin / NEFA / BHA / TG / TC / Non HDL-C: unit not given here
# Protocol: The dosing vehicle was administered to control animals in parallel experiments.
# Body weight was determined daily prior to dosing. Animals were allowed free access to rodent chow and water throughout the study. Blood glucose was determined after a 6-hour fast in the afternoon without anesthesia from a tail vein. Serum was also prepared from a blood sample subsequently obtained from the orbital venous plexus (with O2/CO2 anesthesia) prior to and after one week treatment and used lipid and insulin determinations. At two weeks, blood glucose was again determined after a 6-hour fast without anesthesia from a tail vein. Soon thereafter, animals were sacrificed by CO2 inhalation in the afternoon and cardiac blood serum was collected and assessed for various lipids and insulin.
# primary rat hepatocytes = assay: Synthesis of total lipids (14C-acetate labeling) in primary rat hepatocytes; type: cell-based; details: rat hepatocyte cells, 14C-acetate 4 hr, vs vehicle control
# Protocol: A male Sprague-Dawley rate was anesthetized by administration of sodium pentobarbitol by intraperitoneal at 80 mg/kg. In situ perfusion of the liver was performed as follows. The abdomen of the animal was opened, the portal vein canulated, and the liver perfused with WOSH solution (149 mM NaCl, 9.2 mM Na HEPES, 1.7 mM Fructose, 0.5 mM EGTA, 0.029 mM Phenol red, 10 U/ml heparin, pH 7.5) at a flow rate of 30 ml/min for 6 minutes. To digest the liver, DSC solution (6.7 mM KCl, 143 mM NaCl, 9.2 mM Na HEPES, 5 mM CaCl2-2H2O, 1.7 mM Fructose, 0.029 mM Phenol red, 0.2% BSA, 100 U/ml collagenase Type 1,160 BAEE/ml trypsin inhibitor, pH 7.5) was perfused through the liver at a flow rate of 30 ml/min for 6 minutes at a temperature of 37° C. After digestion, cells were dispersed in a solution of DMEM-(DMEM containing 2 mM GlutMax-1, 0.2% BSA, 5% FBS, 12 nM insulin, 1.2 μM hydrocortisone) to stop the digestion process. The crude cell suspension was filtered through three layers of stainless steel mesh with pore sizes of 250, 106, and 75 μm respectively. Filtered cells were centrifuged at 50×g for two minutes and the supernatant discarded. The resulting cell pellet was resuspended in DMEM and centrifuged again. This final cell pellet was resuspended in DMEM+HS solution (DMEM containing 2 mM GlutMax-1, 20 mM delta-aminolevulinic acid, 17.4 mM MEM nonessential amino acids, 20% FBS, 12 nM insulin, 1.2 μM hydrocortisone) and plated to form monolayer cultures at a density of 100×10^3 cells/cm^2 on collagen coated culture dishes.
# To test the effect of an illustrative compound of the invention on synthesis rates of total lipids, the monolayer cultures were exposed to 1, 3, 10, 30, 100, or 300 μM of Compound A or 10 μM of Compound 1 in DMEM+containing 1 μCi/ml 14C-acetate, D-glucose, hepes, glutamine, leucine, alanine, lactate, pyruvate, non-essential amino acids, BSA, and gentamicine. Control cells were exposed to the same media lacking lovastatin or the test compounds. All cells were exposed to 0.1% DMSO. Metabolic labeling with ^14C-acetate continued for 4 hr at 37° C. After labeling, cells were washed twice with 1 mL of PBS followed by addition of scintallant (Microscent E) and counted on Topcount®.
# [1] = obese female Zucker rats, oral gavage daily 14 days, 100 mg/kg
# [2] = obese female Zucker rats, oral, 14 days, 100 mg/kg/day (Table 1)
structure (smiles),measurement,setting,value
CC(C)(CCCCOCCCCC(C)(C)COP(=O)(O)O)COP(=O)(O)O.N.N.N.N [Compound A],serum insulin relative to pretreatment,"obese female Zucker rats; fasted obese female Zucker rats, two weeks of treatment, 100 mg/kg",rose slightly
same,liver to body weight,obese female Zucker rats; [1],increased
same,serum non-esterified fatty acids,obese female Zucker rats; [1],reduced
same,serum total cholesterol,obese female Zucker rats; [1],elevated
same,serum triglycerides,obese female Zucker rats; [1],reduced
same,"weight gain, percent of initial weight after two weeks",obese female Zucker rats; [1],1%
same,β-hydroxy butyrate levels,obese female Zucker rats; [1],elevated
same,BHA,obese female Zucker rats; [2],1 ± 0.5
same,Glucose,obese female Zucker rats; [2],5.6 ± 4.2
same,HDL-C,obese female Zucker rats; [2],186.7 ± 51.5
same,Insulin,obese female Zucker rats; [2],10.6 ± 26.3
same,NEFA,obese female Zucker rats; [2],0.059 ± 0.003
same,Non HDL-C,obese female Zucker rats; [2],−30.6 ± 15.4
same,TC,obese female Zucker rats; [2],−85.7 ± 1.2
same,TG,obese female Zucker rats; [2],833.8 ± 209.9
same,ratio of non-HDL cholesterol to HDL cholesterol content,"obese female Zucker rats; obese female Zucker rats, relative to control and reference compound-treated animals, 100 mg/kg",improved
same,HDL-cholesterol elevation,"obese female Zucker rats; obese female Zucker rats, two-week treatment, 100 mg/kg",9 fold
same,body weight increases,"obese female Zucker rats; obese female Zucker rats, versus reference compound-treated animals, 100 mg/kg",did not cause the body weight increases
same,reduction of rates of total lipid synthesis,primary rat hepatocytes; 3 μM,at least 97%
same,reduction of rates of total lipid synthesis,primary rat hepatocytes; 10 μM,at least 97%
same,melting point,,185 to 186 °C
"CC(C)(CCCCC(=O)CCCCC(C)(C)COP(=O)(O)O)COP(=O)(O)O.N.N [Compound D, Phosphoric Acid mono-(2,2,12,12-tetramethyl-7-oxo-13-phosphonooxytridecyl) ester, diammonium salt]",change in vivo at 10 mg/kg/day,"obese female Zucker rats; Rattus norvegicus, 336 h, obese female Zucker rats, oral daily, fourteen days, 10 mg/kg/day, read-out: % wt. gain",12%
same,change in vivo at 10 mg/kg,"obese female Zucker rats; Rattus norvegicus, 336 h, obese female Zucker rats, oral daily, fourteen days, 10 mg/kg/day, read-out: BHA, Percent Change from Pre-treatment",123%
same,change in vivo at 10 mg/kg,"obese female Zucker rats; Rattus norvegicus, 336 h, obese female Zucker rats, oral daily, fourteen days, 10 mg/kg/day, read-out: Glucose, Percent Change from Pre-treatment",-5%
same,change in vivo at 10 mg/kg,"obese female Zucker rats; Rattus norvegicus, 336 h, obese female Zucker rats, oral daily, fourteen days, 10 mg/kg/day, read-out: HDL-C, Percent Change from Pre-treatment",5%
same,change in vivo at 10 mg/kg,"obese female Zucker rats; Rattus norvegicus, 336 h, obese female Zucker rats, oral daily, fourteen days, 10 mg/kg/day, read-out: Insulin, Percent Change from Pre-treatment",4%
same,change in vivo at 10 mg/kg,"obese female Zucker rats; Rattus norvegicus, 336 h, obese female Zucker rats, oral daily, fourteen days, 10 mg/kg/day, read-out: NEFA, Percent Change from Pre-treatment",-13%
same,change in vivo at 10 mg/kg,"obese female Zucker rats; Rattus norvegicus, 336 h, obese female Zucker rats, oral daily, fourteen days, 10 mg/kg/day, read-out: Non HDL-C, Percent Change from Pre-treatment",25%
same,change in vivo at 10 mg/kg,"obese female Zucker rats; Rattus norvegicus, 336 h, obese female Zucker rats, oral daily, fourteen days, 10 mg/kg/day, read-out: TC, Percent Change from Pre-treatment",8%
same,change in vivo at 10 mg/kg,"obese female Zucker rats; Rattus norvegicus, 336 h, obese female Zucker rats, oral daily, fourteen days, 10 mg/kg/day, read-out: TG, Percent Change from Pre-treatment",11%
same,change in vivo at 30 mg/kg/day,"obese female Zucker rats; Rattus norvegicus, 336 h, obese female Zucker rats, oral daily, fourteen days, 30 mg/kg/day, read-out: % wt. gain",9%
same,change in vivo at 30 mg/kg,"obese female Zucker rats; Rattus norvegicus, 336 h, obese female Zucker rats, oral daily, fourteen days, 30 mg/kg/day, read-out: BHA, Percent Change from Pre-treatment",271%
same,change in vivo at 30 mg/kg,"obese female Zucker rats; Rattus norvegicus, 336 h, obese female Zucker rats, oral daily, fourteen days, 30 mg/kg/day, read-out: Glucose, Percent Change from Pre-treatment",-4%
same,change in vivo at 30 mg/kg,"obese female Zucker rats; Rattus norvegicus, 336 h, obese female Zucker rats, oral daily, fourteen days, 30 mg/kg/day, read-out: HDL-C, Percent Change from Pre-treatment",28%
same,change in vivo at 30 mg/kg,"obese female Zucker rats; Rattus norvegicus, 336 h, obese female Zucker rats, oral daily, fourteen days, 30 mg/kg/day, read-out: Insulin, Percent Change from Pre-treatment",2%
same,change in vivo at 30 mg/kg,"obese female Zucker rats; Rattus norvegicus, 336 h, obese female Zucker rats, oral daily, fourteen days, 30 mg/kg/day, read-out: NEFA, Percent Change from Pre-treatment",-25%
same,change in vivo at 30 mg/kg,"obese female Zucker rats; Rattus norvegicus, 336 h, obese female Zucker rats, oral daily, fourteen days, 30 mg/kg/day, read-out: Non HDL-C, Percent Change from Pre-treatment",22%
same,change in vivo at 30 mg/kg,"obese female Zucker rats; Rattus norvegicus, 336 h, obese female Zucker rats, oral daily, fourteen days, 30 mg/kg/day, read-out: TC, Percent Change from Pre-treatment",21%
same,change in vivo at 30 mg/kg,"obese female Zucker rats; Rattus norvegicus, 336 h, obese female Zucker rats, oral daily, fourteen days, 30 mg/kg/day, read-out: TG, Percent Change from Pre-treatment",-12%
same,change in vivo at 100 mg/kg/day,"obese female Zucker rats; Rattus norvegicus, 336 h, obese female Zucker rats, oral daily, fourteen days, 100 mg/kg/day, read-out: % wt. gain",8%
same,change in vivo at 100 mg/kg,"obese female Zucker rats; Rattus norvegicus, 336 h, obese female Zucker rats, oral daily, fourteen days, 100 mg/kg/day, read-out: BHA, Percent Change from Pre-treatment",814%
same,change in vivo at 100 mg/kg,"obese female Zucker rats; Rattus norvegicus, 336 h, obese female Zucker rats, oral daily, fourteen days, 100 mg/kg/day, read-out: Glucose, Percent Change from Pre-treatment",-3%
same,change in vivo at 100 mg/kg,"obese female Zucker rats; Rattus norvegicus, 336 h, obese female Zucker rats, oral daily, fourteen days, 100 mg/kg/day, read-out: HDL-C, Percent Change from Pre-treatment",57%
same,change in vivo at 100 mg/kg,"obese female Zucker rats; Rattus norvegicus, 336 h, obese female Zucker rats, oral daily, fourteen days, 100 mg/kg/day, read-out: Insulin, Percent Change from Pre-treatment",14%
same,change in vivo at 100 mg/kg,"obese female Zucker rats; Rattus norvegicus, 336 h, obese female Zucker rats, oral daily, fourteen days, 100 mg/kg/day, read-out: NEFA, Percent Change from Pre-treatment",-22%
same,change in vivo at 100 mg/kg,"obese female Zucker rats; Rattus norvegicus, 336 h, obese female Zucker rats, oral daily, fourteen days, 100 mg/kg/day, read-out: Non HDL-C, Percent Change from Pre-treatment",71%
same,change in vivo at 100 mg/kg,"obese female Zucker rats; Rattus norvegicus, 336 h, obese female Zucker rats, oral daily, fourteen days, 100 mg/kg/day, read-out: TC, Percent Change from Pre-treatment",55%
same,change in vivo at 100 mg/kg,"obese female Zucker rats; Rattus norvegicus, 336 h, obese female Zucker rats, oral daily, fourteen days, 100 mg/kg/day, read-out: TG, Percent Change from Pre-treatment",-1%
same,melting point,,191 to 193 °C

# Reference: patent publication US20030236212A1, “Functionalized long chain derivatives as acyl coenzyme-A mimics, compositions thereof, and methods of cholesterol management and related uses” (priority 2002, published 2003)
